Test results from patent US20230107216A1, “PANTETHEINE DERIVATIVES AND USES THEREOF” (Comet Therapeutics, Inc., priority 2018, published 2023).
Like-named read-outs stand apart in the source and are kept apart here.

What was measured:
[1] = test system: Propionic Acidemia (PA) primary fibroblasts Tsi 6337; assay: Mitochondrial respiration, XFe96 Extracellular Flux Analyzer (OCR/ECAR), PA fibroblasts Tsi 6337; assay type: cell-based; conditions: Homo sapiens, Fibroblast, read-out: Increase in Maximal Respiratory Capacity AUC
Description: The effect of the compounds of the present disclosure on mitochondrial respiration was measured with a XFe96 Extracellular Flux Analyzer (Seahorse Bioscience, Agilent Technologies) and Oxygen consumption Rate (OCR) and Extracellular acidification rate (ECAR) determined.
Cell culture and treatments. Primary adherent fibroblasts were cultured in minimum essential medium (MEM) (Gibco, 25030081) supplemented with 2 mM L-Glutamine (Gibco, 25030081), 15% fetal bovine serum (FBS) (Gibco, 26400044) and 1% penicillin/streptomycin (Gibco, 5140122) at 37° C. and 5% CO2. Cells were collected for either passaging or experiment at ˜70-80% confluence. Cells were obtained by trypsinization and seeded at 20000 cells/well in cell culture microplates (Seahorse Bioscience, 101085-004) and allowed to adhere for 16 hours in culture media.
By profiling different primary cells and/or optimizing their culture media or environmental components one can select cell lines and/or conditions that are appropriate for the biological or disease model. In the present example, 24 hours prior to OCR and ECAR profiling, media was changed to Dulbecco's Modified Eagle Medium (DMEM, Agilent Seahorse 103575-100) with the appropriate supplements for the different primary cells (10 mM glucose, 2 mM L-glutamine, 1 mM pyruvate, 10% FBS; 1 mM glucose, 2 mM L-glutamine, 1 mM pyruvate, 10% FBS; 10 mM glucose, 10% FBS; 5 mM glucose 10% FBS; 1 mM glucose 10% FBS). Cells used in this example were: Propionic Acidemia (PA) (GM00371, GM03590 Coriell Institute for Medical Research, Tsi 6337, Tsi 4626, Tsi 3618 Trans-Hit Bio), Methylmalonic Acidemia (MMA) (GM01673, Coriell Institute for Medical Research, Tsi 5224 Trans-Hit Bio), Branched chain ketoacid dehydrogenase kinase (BCKDK) (GM00612, GM00649 Coriell Institute for Medical Research), Subnormal activation of pyruvate dehydrogenase complex (PDH) (GM01503 Coriell Institute for Medical Research), Very long-chain acyl-CoA dehydrogenase (VLCAD) (GM17475), Leigh Syndrome (LS) (GM03672, GM13411 Coriell Institute for Medical Research), Pyruvate Carboxylase Deficiency (PC) (GM00444 Coriell Institute for Medical Research), Glutaric Acidemia-I (GA) (GM10653), Friedreich's Ataxia (FXN) (GM04078 Coriell Institute for Medical Research, Huntington's disease (HD) (GM21756 Coriell Institute for Medical Research), Ornithine Transcarbamylase Deficiency (OTC) (GM12756 Coriell Institute for Medical Research), Kearns-Sayre Syndrome (KSS) (GM06225 Coriell Institute for Medical Research).
One hour before the assay, the cells were washed with freshly prepared unbuffered serum free-Seahorse XF Assay medium (Seahorse Bioscience, North America, USA, 103575-100) with the same supplements as for the previous 24 hour incubation.
After baseline measurements of OCR, cells were challenged with compounds of the present disclosure at different concentrations (10 to 50 μM) or vehicle (DMSO, 0.1%) and a post-compound baseline was recorded. OCR was measured after sequentially adding to each well 1 μg/ml oligomycin (inhibitor of ATP synthase Sigma-Aldrich, 753531), then maximal OCR was determined with carbonyl cyanide 4-(trifluoromethoxy) phenylhydrazone (FCCP, Sigma-Aldrich, C2920), (uncoupler of oxidative phosphorylation) and 0.5 μM of rotenone (Sigma-Aldrich, R8875) plus antimycin A (Sigma-Aldrich, A8674) (inhibitors of mitochondrial complex I and III) for determination of rotenone-antimycin insensitive respiration together with Hoechst for nuclear staining in situ when normalized to cell counts. After the analysis and nuclear staining, the XFp microplate was transferred to the Cytation 5, and the nuclear images were captured, the individual nuclei were identified and counted by BioTek Gen5 software. Data were expressed as pmol of O2 per minute and normalized by nuclear staining and baselined to pre-compound addition.
Assay conditions were as stated below.
Assay specifics on assay conditions are indicated below when readouts were normalized to cell counts. […]

HepG2 cells = assay: Mitochondrial membrane potential (MITO-ID MP detection Kit); assay type: cell-based; conditions: Homo sapiens, 168 h, 7 days, read-out: % increase in Mitochondrial Membrane Potential
Description: HepG2 cells (ATCC, HB-8065) were cultured (5% CO2 at 37° C.) and plated in Poly-D-Lysine 384-Well plate (Corning, 356663) at a density of 160000 cells/mL in 50 μL/well. Culture and assay media consisted of DMEM (Gibco, 11995-065) supplemented with 1% Penicillin-Streptomycin and 10% FBS (Hyclone, SV30087.03).
MITO-ID® MP detection Kit (ENZ-51018) was used and manufacturer instructions followed. Cells were allowed to settle for 30 min at room temperature and further incubated overnight (37° C. and 5% CO2) for adherence. Next day, test compounds (50-10 μM) and vehicle DMSO (0.2%) were added at the recommended volumes to the 384-well plate for 7 days without media change using a Tecan compound dispenser. All the solutions and wash buffers were prepared and dispensed according to manufacturer's volumes for a 384-well plate format.

[2] = test system: monocyte-derived M1 macrophages; assay: M1 differentiation assay (macrophage TNFα, IL6, IL10 ELISA, FACS); assay type: cell-based, human; conditions: Homo sapiens, Macrophage
In short: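 CD14+ human blood monocytes (100,000) differentiated 6 days with 10 ng/ml GM-CSF plus compound at 10 or 50 μM, refreshed days 2 and 4. Matured 24 h with GM-CSF, IFNγ, LPS plus compound. Supernatant TNFα, IL6, IL10 by ELISA; FACS M1 phenotype CD86+CD68+CD163−.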

[3] = test system: primary culture of rat embryo mesencephalic cells (microglia, astrocytes and neurons) exposed to LPS; assay: Neuroprotective effect on damage induced by LPS on culture of mesencephalic neurons (NO, TNF-α, IL-1β, TH positive neurons); assay type: cell-based; conditions: Rattus norvegicus, Neuron, 120 h, 50 uM, after 5 days of LPS exposure; list at threshold 15%; read-out: % reversion of TH positive neurons
Description: Drug preparation. […] The stock solutions will be prepared 1000× the concentration in 100% DMSO. The final concentration of the vehicle (DMSO) is set at 0.1%.
Test animals. Pregnant Wistar rats (Janvier; France) are used for the study. They are group-housed and maintained in a room with controlled temperature (21-22° C.) and a reversed light-dark cycle (12h/12h; lights on: 17:30-05:30; lights off: 05:30-17:30) with food and water available ad libitum.
The protocol is performed in 3 independent cultures. For each culture, each condition is performed in sextuplicate.
Female rat of 15 days gestation is killed by cervical dislocation. Fetuses are removed from the uterus and their brains are harvested and placed in ice-cold medium (Leibovitz's L15 medium, Gibco). Only ventral mesencephalic flexure is used for the cell preparations. The midbrain is dissociated by trypsinization. The reaction is stopped, and the suspension is triturated and centrifuged. The pellet of dissociated cells is resuspended in culture medium consisted of DMEM-F12 (Gibco), containing 10% FBS (ATCC), 10% Horse serum (Gibco) and 2 mM L-glutamine (Gibco). Viable cells are counted and seeded on 96-well plates, precoated with poly-L-lysine. Cells are maintained in a humidified incubator at 37° C. in 5% CO2-95% air atmosphere. Half of the medium is changed on day 2 and day 5.
Treatment. On day 7, culture media are removed and replaced by new medium consisting of DMEM-F12 (Gibco) supplemented with 2% FBS (ATCC), 2% Horse serum (Gibco) and 2 mM L-glutamine (Gibco) and containing vehicle or test substances. After 1-hour exposure, LPS at 10 ng/ml is added and exposure further continued for 24 hours or 5 days period.
Inflammatory response measurement and neuronal death evaluation. NO production is measured in the media 24h and 5 days after LPS exposure using the Griess reagent kit (Molecular Probes). The Griess reagent Assay is a colorimetric reaction assay which measures the conversion of a sulfanilic salt into an azo dye product by nitrite. Visible wavelength absorbance data is collected using a 96-well plate reader at 570 nm (Multiskan EX, Thermo Fisher, France). IL-1β and TNF-α release are measured in the media 24h after LPS exposure using the ELISA development kit (PeproTech). The ELISA plate, previously coated with anti-IL-1β or anti-TNF-αantibody at 1 μg/ml, is incubated 1h with PBS containing 1% of BSA (bovine serum albumin). After washing four times with PBS containing 0.05% of Tween-20, the plate is successively incubated 2h with supernatant, 2h with biotinylated antibody at 0.5 μg/ml in PBS containing 0.1% of BSA and 0.05% of Tween-20, 45 min with Avidin-HRP conjugated at 1/2000 and 30 min with color ABTS substrate (Sigma). Visible wavelength absorbance data is collected using a 96-well plate reader at 405 nm with wavelength correction set at 650 nm (Multiskan EX, Thermo Fisher, France).
Immunodetection of tyrosine hydroxylase positive neurons. On day 12 (5 days after LPS exposure), cultures are fixed 30 min at 4° C. with paraformaldehyde in PBS (4%, Sigma). Then, cells are successively permeabilized with 0.1% Triton X100 for 30 min, saturated with PBS containing 3% of BSA (bovine serum albumin) and are incubated 2h with anti-tyrosine hydroxylase antibody (Sigma, 1:10000; clone TH-2) at 1/10 000 in PBS containing 0.5% of BSA. Cells are washed three times with PBS containing 0.5% of BSA, and they are incubated 1h with goat anti mouse antibody coupled with AF488 (Invitrogen A11001) diluted at 1/1000 in PBS containing 0.5% of BSA. Finally, nuclei are stained with DAPI at 1/1000 in PBS containing 0.5% of BSA. After rinsing with PBS, the plate is visualized and examined with Cell Insight HCS (Thermo Scientific) to determine the number of tyrosine hydroxylase positive cells per well.
Statistical Analysis. The drug-induced effect on NO and cytokines is calculated by setting the response of the LPS-stimulated control as 100%. […]

[4] = PA Tsi 6337, assay condition A (10 mM glucose, 2 mM L-glutamine, 1 mM pyruvate, 10% FBS)

| Structure (SMILES) | activation at 10 µM [1, 4] | activation at 10 µM (HepG2 cells) | inhibition at 10 µM ([2]; 10 uM, read-out: % decrease in Macrophage IL-6 Secretion) | activation at 50 µM ([2]; 50 uM, read-out: % Increase in IL-10 Secretion) | activation at 10 µM ([1]; PA Tsi 6337, assay condition D (1 mM glucose, 10% FBS)) | activation at 50 µM (HepG2 cells; 50 uM) | inhibition at 50 µM [3] |
| --- | --- | --- | --- | --- | --- | --- | --- |
| CC(C)(CO)[C@@H](O)C(=O)NCCC(=O)NCCSC(=O)C1CCC(=O)O1 (stereo partly drawn) [Compound 1229, S-2-{3-[(R)-2,4-dihydroxy-3,3-dimethylbutyrylamino]propionylamino} ethyl 5-oxo-3,4-dihydro-2H-furan-2-carbothioate] | ≥ 10% | > 20% | ≥ 30% | ≥ 30% |  |  |  |
| COC(=O)CCC(=O)OCC(C)(C)[C@@H](O)C(=O)NCCC(=O)NCCSC(=O)CCC(=O)OC [Compound 1230] | ≥ 10% | > 30% |  |  | ≥ 10% |  |  |
| C[C@@H](CC(=O)SCCNC(=O)CCNC(=O)[C@H](O)C(C)(C)CO)OC(=O)CCC(=O)O [Compound 1247, 4-{[(2S)-4-[(2-{3-[(2R)-2,4-dihydroxy-3,3-dimethylbutanamido]propanamido}ethyl)sulfanyl]-4-oxobutan-2-yl]oxy}-4-oxobutanoic acid] | ≥ 10% |  |  |  |  | > 20% |  |
| CC(C)(CO)[C@@H](O)C(=O)NCCC(=O)NCCS [Preparatory Ex 5] |  |  |  |  |  |  | ≥ 15% |
